The results in this text go back to US20080039629A1, “Benzothniazole compositions and their use as ubiquition ligation inhibitors” (RIGEL PHARMACEUTICALS, INC., priority 2003, published 2008).

The target of the experiment is T1, E1 and His-E2 Ubch10 (Homo sapiens, UniProt P22314).
T1 construct: host or cells: E. coli (His-Ubch10); Sf9 insect cells (E1)
T1 sequence (P22314 1-1058): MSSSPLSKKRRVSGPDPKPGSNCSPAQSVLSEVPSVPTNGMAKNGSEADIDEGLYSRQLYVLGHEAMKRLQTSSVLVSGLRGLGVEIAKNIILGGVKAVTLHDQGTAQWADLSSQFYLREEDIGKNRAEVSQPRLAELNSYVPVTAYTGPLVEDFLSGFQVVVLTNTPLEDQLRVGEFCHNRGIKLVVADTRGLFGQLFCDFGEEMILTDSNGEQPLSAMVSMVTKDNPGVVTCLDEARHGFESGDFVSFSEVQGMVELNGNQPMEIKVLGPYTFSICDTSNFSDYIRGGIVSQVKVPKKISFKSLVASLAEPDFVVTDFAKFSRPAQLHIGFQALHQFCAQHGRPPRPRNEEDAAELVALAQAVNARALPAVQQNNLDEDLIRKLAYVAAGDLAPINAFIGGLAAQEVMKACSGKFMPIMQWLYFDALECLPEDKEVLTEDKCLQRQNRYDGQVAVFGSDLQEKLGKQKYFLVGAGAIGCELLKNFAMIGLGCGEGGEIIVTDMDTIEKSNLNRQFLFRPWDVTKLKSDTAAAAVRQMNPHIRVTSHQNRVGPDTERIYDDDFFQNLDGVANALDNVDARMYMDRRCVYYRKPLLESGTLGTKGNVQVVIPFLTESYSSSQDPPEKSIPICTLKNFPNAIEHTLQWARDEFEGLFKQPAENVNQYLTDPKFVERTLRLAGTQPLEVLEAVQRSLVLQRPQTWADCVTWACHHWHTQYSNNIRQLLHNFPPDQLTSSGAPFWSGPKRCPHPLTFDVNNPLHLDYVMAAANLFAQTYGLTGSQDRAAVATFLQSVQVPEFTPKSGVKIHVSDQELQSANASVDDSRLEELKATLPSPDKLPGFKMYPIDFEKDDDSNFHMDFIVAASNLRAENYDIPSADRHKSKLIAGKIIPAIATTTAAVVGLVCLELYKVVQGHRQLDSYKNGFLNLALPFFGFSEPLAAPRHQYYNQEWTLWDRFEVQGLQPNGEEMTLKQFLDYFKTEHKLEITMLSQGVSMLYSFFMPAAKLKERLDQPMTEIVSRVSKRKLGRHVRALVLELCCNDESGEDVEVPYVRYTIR
As to the kind of experiment: E1 to E2 transfer assay, His-E2 Ubch10, 1.0 μM ATP (low ATP). Particulars: Table 5, ATP inhibition properties; inhibition measured using IC50 values. It counts as biochemical. The text has this:
Biological assays for determining the transfer of ubiquitin from the E1 activating agent to the E2 conjugating agent are described in U.S. patent application Ser. Nos. 09/542,497 and 09/826,312 as well as in the PCT Application WO 01/75145, all of which are incorporated by reference in their entirety. The following assay example illustrates one way by which the ubiquitin ligase inhibitory activity of the compounds of the invention can be assayed. This assay example is not meant to limit in any way the use of the compounds of the invention as ubiquitin ligase inhibitors.
The attachment of a ubiquitin moiety to the E2 conjugating agent was assayed using Flag-ubiquitin that was purified from E. coli, E2 Ubch10 that was purified as a His-Ubch10 from E. coli, and E1 that was purified from Sf9 insect cells (Affiniti Research Products, Exeter, U.K.). The wells of a Nickel-substrate 96-well plate (Pierce Chemical) were blocked with 100 μl of 1% casein/phosphate buffered saline (PBS) for 1 hour at room temperature. The blocked Nickel-substrate plate was then washed three times with 200 μl of PBST (0.1% Tween-20 in PBS). Subsequently, Flag-ubiquitin reaction solution was added to each well so that the final concentration was 62.5 mM Tris pH 7.5, […], 0.75 mM DTT, 1.0 μM ATP (low ATP), and 100 ng Flag-ubiquitin. The final reaction solution volume was fixed to 80 μl with Millipore-filtered water. To this was added the following: a ubiquitin agent inhibitor in 10 μl of DMSO, 10 μl of E1 and His-E2 Ubch10 in 20 mM Tris buffer, pH 7.5, and 5% glycerol so that there was 10 ng/well of E1 and 20 ng/well of His-E2 Ubch10. The reaction was then allowed to proceed at room temperature for 1 hour.
After 1 hour, the wells were washed three times with 200 μl of PBST and the amount of E2-ubiquitin complex was measured. For measuring the amount of the E2-ubiquitin complex, 100 μl of Mouse anti-flag diluted 1:10,000 (Sigma Aldrich Fluka Chemicals, St. Louis, Mo.) and anti-mouse HRP diluted 1:15,000 (Jackson Immunoresearch labs, West Grove, Pa.) in PBST were added to each well and allowed to incubate at room temperature for another hour. The wells were then washed three times with 200 μl of PBST and 100 μl of luminol substrate (⅕ dilution) was added. The luminescence of each well was then measured using a […] to calculate the amount of E2-ubiquitin complex. This procedure was repeated using His-E2 Ubch5C instead of His-E2 Ubch10.
The table below illustrates the inhibitory properties of the pharmaceutical compostions of the invention comprising the compounds listed in the table using the assays described above. Inhibition was measured using IC50 values.

Take `C=C(C)C(=O)Nc1ccc(C(=O)Nc2nc3ccc(OC)cc3s2)cc1` [Compound 15, 4-methacrylamido-N-(6-methoxybenzo[d]thiazol-2-yl)benzamide]: the UBC10 result was “++ (++ indicates inhibition at 50 μM or or less)”.
The same measure for `COc1ccc2nc(NC(=O)c3ccc(N)cc3)sc2c1` [Compound 16, 4-amino-N-(6-methoxybenzo[d]thiazol-2-yl)benzamide]: “++ (++ indicates inhibition at 50 μM or or less)”; for `COc1ccc2nc(NC(=O)c3ccc(NC(C)=O)cc3)sc2c1` [Compound 17, 4-acetamido-N-(6-methoxybenzo[d]thiazol-2-yl)benzamide]: “++ (++ indicates inhibition at 50 μM or or less)”.
Regarding `COc1ccc2nc(NC(=O)c3ccc([N+](=O)[O-])cc3Cl)sc2c1` [Compound 18, 2-chloro-N-(6-methoxybenzo[d]thiazol-2-yl)-4-nitrobenzamide], the UBC10 result is on record as “−− (−− indicates marginal or no inhibition detected with this assay)”.
The same measure for `COc1ccc2nc(NC(=O)c3ccc(NC(=O)C4CCCCC4)cc3)sc2c1` [Compound 19, 4-(cyclohexanecarboxamido)-N-(6-methoxybenzo[d]thiazol-2-yl)benzamide]: “++ (++ indicates inhibition at 50 μM or or less)”; for `COc1ccc2nc(NC(=O)c3ccc([N+](=O)[O-])c(C)c3)sc2c1` [Compound 20, N-(6-methoxybenzo[d]thiazol-2-yl)-3-methyl-4-nitrobenzamide]: “−− (−− indicates marginal or no inhibition detected with this assay)”.
As for `COc1ccc2nc(NC(=O)c3ccc(C)cc3)sc2c1` [Compound 21, N-(6-methoxybenzo[d]thiazol-2-yl)-4-methylbenzamide], the entry is “++ (++ indicates inhibition at 50 μM or or less)”; as for `COc1ccc2nc(NC(=O)c3ccc(C)c([N+](=O)[O-])c3)sc2c1` [Compound 23, N-(6-methoxybenzo[d]thiazol-2-yl)-4-methyl-3-nitrobenzamide], “−− (−− indicates marginal or no inhibition detected with this assay)”; as for `COc1ccc2nc(NC(=O)c3ccc([N+](=O)[O-])cc3)sc2c1` [Compound 24, N-(6-methoxybenzo[d]thiazol-2-yl)-4-nitrobenzamide], “++ (++ indicates inhibition at 50 μM or or less)”.
The same measure for `COc1ccc2nc(NC(=O)c3ccc4ccccc4c3)sc2c1` [Compound 25, N-(6-methoxybenzo[d]thiazol-2-yl)-2-naphthamide]: “−− (−− indicates marginal or no inhibition detected with this assay)”; for `COC(=O)c1ccc(C(=O)Nc2nc3ccc(OC)cc3s2)cc1` [Compound 26, methyl 4-((6-methoxybenzo[d]thiazol-2-yl)carbamoyl)benzoate]: “++ (++ indicates inhibition at 50 μM or or less)”; for `COc1ccc2nc(NC(=O)c3ccc(OC(C)=O)cc3)sc2c1` [Compound 27, 4-((6-methoxybenzo[d]thiazol-2-yl)carbamoyl)phenyl acetate]: “++ (++ indicates inhibition at 50 μM or or less)”.
Consider `COc1ccc2nc(NC(=O)c3ccc(C(C)=O)cc3)sc2c1` [Compound 28, 4-acetyl-N-(6-methoxybenzo[d]thiazol-2-yl)benzamide], for which the UBC10 result was “++ (++ indicates inhibition at 50 μM or or less)”.
Regarding `COc1ccc2nc(NC(=O)c3ccc4c(c3)OCCO4)sc2c1` [Compound 29, N-(6-methoxybenzo[d]thiazol-2-yl)-2,3-dihydrobenzo[b][1,4]dioxine-6-carboxamide], the UBC10 result is “++ (++ indicates inhibition at 50 μM or or less)”.
The same measure for `COc1ccc2nc(NC(=O)c3ccc(Cl)cc3)sc2c1` [Compound 30, 4-chloro-N-(6-methoxybenzo[d]thiazol-2-yl)benzamide]: “++ (++ indicates inhibition at 50 μM or or less)”; for `COc1ccc2nc(NC(=O)c3ccc(C#N)cc3)sc2c1` [Compound 31, 4-cyano-N-(6-methoxybenzo[d]thiazol-2-yl)benzamide]: “++ (++ indicates inhibition at 50 μM or or less)”; for `COc1ccc2nc(NC(=O)c3ccccc3)sc2c1` [Compound 32, N-(6-methoxybenzo[d]thiazol-2-yl)benzamide]: “++ (++ indicates inhibition at 50 μM or or less)”.
As for `COc1ccc(-c2ccc(C(=O)Nc3nc4ccc(OC)cc4s3)cc2)cc1` [Compound 33, 4′-methoxy-N-(6-methoxy-1,3-benzothiazol-2-yl)biphenyl-4-carboxamide], the entry is “++ (++ indicates inhibition at 50 μM or or less)”.
As for `COc1ccc2nc(NC(=O)c3ccc(S(=O)(=O)N4CCCC4)cc3)sc2c1` [Compound 34, N-(6-methoxybenzo[d]thiazol-2-yl)-4-(pyrrolidin-1-ylsulfonyl)benzamide], the entry is “++ (++ indicates inhibition at 50 μM or or less)”.
On to `COc1ccc2nc(NC(=O)c3ccc(Oc4ccccc4)cc3)sc2c1` [Compound 35, N-(6-methoxybenzo[d]thiazol-2-yl)-4-phenoxybenzamide], for which the UBC10 result is recorded as “−− (−− indicates marginal or no inhibition detected with this assay)”.
The same measure for `COc1ccc(C(=O)Nc2nc3ccc(OC)cc3s2)cc1` [Compound 36, 4-methoxy-N-(6-methoxybenzo[d]thiazol-2-yl)benzamide]: “++ (++ indicates inhibition at 50 μM or or less)”; for `COc1ccc2nc(NC(=O)C3CCCN3S(=O)(=O)c3ccc(C)cc3)sc2c1` (stereo not drawn) [Compound 37, N-(6-methoxybenzo[d]thiazol-2-yl)-1-tosylpyrrolidine-2-carboxamide]: “−− (−− indicates marginal or no inhibition detected with this assay)”.
The same measure for `COc1ccc2nc(NC(=O)C3Cc4ccccc4N3)sc2c1` (stereo not drawn) [Compound 38, N-(6-methoxybenzo[d]thiazol-2-yl)indoline-2-carboxamide]: “++ (++ indicates inhibition at 50 μM or or less)”; for `COc1ccc2nc(NC(=O)[C@H]3Cc4ccccc4N3)sc2c1` [Compound 39, (R)-N-(6-methoxybenzo[d]thiazol-2-yl)indoline-2-carboxamide]: “++ (++ indicates inhibition at 50 μM or or less)”; for `COc1ccc2nc(NC(=O)Cc3cc4ccccc4n3C)sc2c1` [Compound 40, N-(6-methoxybenzo[d]thiazol-2-yl)-2-(1-methyl-1H-indol-2-yl)acetamide]: “++ (++ indicates inhibition at 50 μM or or less)”.
The same measure for `COc1ccc2nc(NC(C)=O)sc2c1` [Compound 41, N-(6-methoxybenzo[d]thiazol-2-yl)acetamide]: “++ (++ indicates inhibition at 50 μM or or less)”; for `COc1ccc2nc(NC(=O)C34CC5CC(CC(C5)C3)C4)sc2c1` [Compound 42, N-(6-methoxy-1,3-benzothiazol-2-yl)adamantane-1-carboxamide]: “++ (++ indicates inhibition at 50 μM or or less)”.
